Counter-ions that a name gives are not always drawn. Calls of active or inactive are those of the source. The rule behind the calls is not given here.
Experiments:
[1] = Inhibition of HIF transcriptional activity in human HeLa cells harbouring HRE-luc preincubated for 1 hr under normoxic condition followed by 8 hrs incubation under hypoxic condition by luciferase reporter assay; assay type: cell-based
[2] = target: T1, Histone acetyltransferase p300/Hypoxia-inducible factor 1-alpha (Homo sapiens, UniProt Q09472+Q16665); experiment: Inhibition of HIF-1alpha(unknown origin)/human p300 CH1 domain (323 to 423 residues) PPI extracted from Escherichia coli incubated for 1 hr by SpectraMax iD5 MultiMode microplate reader analysis; assay type: protein-complex assay
T1 sequence (Q09472 whole entry, the tested form may be a part): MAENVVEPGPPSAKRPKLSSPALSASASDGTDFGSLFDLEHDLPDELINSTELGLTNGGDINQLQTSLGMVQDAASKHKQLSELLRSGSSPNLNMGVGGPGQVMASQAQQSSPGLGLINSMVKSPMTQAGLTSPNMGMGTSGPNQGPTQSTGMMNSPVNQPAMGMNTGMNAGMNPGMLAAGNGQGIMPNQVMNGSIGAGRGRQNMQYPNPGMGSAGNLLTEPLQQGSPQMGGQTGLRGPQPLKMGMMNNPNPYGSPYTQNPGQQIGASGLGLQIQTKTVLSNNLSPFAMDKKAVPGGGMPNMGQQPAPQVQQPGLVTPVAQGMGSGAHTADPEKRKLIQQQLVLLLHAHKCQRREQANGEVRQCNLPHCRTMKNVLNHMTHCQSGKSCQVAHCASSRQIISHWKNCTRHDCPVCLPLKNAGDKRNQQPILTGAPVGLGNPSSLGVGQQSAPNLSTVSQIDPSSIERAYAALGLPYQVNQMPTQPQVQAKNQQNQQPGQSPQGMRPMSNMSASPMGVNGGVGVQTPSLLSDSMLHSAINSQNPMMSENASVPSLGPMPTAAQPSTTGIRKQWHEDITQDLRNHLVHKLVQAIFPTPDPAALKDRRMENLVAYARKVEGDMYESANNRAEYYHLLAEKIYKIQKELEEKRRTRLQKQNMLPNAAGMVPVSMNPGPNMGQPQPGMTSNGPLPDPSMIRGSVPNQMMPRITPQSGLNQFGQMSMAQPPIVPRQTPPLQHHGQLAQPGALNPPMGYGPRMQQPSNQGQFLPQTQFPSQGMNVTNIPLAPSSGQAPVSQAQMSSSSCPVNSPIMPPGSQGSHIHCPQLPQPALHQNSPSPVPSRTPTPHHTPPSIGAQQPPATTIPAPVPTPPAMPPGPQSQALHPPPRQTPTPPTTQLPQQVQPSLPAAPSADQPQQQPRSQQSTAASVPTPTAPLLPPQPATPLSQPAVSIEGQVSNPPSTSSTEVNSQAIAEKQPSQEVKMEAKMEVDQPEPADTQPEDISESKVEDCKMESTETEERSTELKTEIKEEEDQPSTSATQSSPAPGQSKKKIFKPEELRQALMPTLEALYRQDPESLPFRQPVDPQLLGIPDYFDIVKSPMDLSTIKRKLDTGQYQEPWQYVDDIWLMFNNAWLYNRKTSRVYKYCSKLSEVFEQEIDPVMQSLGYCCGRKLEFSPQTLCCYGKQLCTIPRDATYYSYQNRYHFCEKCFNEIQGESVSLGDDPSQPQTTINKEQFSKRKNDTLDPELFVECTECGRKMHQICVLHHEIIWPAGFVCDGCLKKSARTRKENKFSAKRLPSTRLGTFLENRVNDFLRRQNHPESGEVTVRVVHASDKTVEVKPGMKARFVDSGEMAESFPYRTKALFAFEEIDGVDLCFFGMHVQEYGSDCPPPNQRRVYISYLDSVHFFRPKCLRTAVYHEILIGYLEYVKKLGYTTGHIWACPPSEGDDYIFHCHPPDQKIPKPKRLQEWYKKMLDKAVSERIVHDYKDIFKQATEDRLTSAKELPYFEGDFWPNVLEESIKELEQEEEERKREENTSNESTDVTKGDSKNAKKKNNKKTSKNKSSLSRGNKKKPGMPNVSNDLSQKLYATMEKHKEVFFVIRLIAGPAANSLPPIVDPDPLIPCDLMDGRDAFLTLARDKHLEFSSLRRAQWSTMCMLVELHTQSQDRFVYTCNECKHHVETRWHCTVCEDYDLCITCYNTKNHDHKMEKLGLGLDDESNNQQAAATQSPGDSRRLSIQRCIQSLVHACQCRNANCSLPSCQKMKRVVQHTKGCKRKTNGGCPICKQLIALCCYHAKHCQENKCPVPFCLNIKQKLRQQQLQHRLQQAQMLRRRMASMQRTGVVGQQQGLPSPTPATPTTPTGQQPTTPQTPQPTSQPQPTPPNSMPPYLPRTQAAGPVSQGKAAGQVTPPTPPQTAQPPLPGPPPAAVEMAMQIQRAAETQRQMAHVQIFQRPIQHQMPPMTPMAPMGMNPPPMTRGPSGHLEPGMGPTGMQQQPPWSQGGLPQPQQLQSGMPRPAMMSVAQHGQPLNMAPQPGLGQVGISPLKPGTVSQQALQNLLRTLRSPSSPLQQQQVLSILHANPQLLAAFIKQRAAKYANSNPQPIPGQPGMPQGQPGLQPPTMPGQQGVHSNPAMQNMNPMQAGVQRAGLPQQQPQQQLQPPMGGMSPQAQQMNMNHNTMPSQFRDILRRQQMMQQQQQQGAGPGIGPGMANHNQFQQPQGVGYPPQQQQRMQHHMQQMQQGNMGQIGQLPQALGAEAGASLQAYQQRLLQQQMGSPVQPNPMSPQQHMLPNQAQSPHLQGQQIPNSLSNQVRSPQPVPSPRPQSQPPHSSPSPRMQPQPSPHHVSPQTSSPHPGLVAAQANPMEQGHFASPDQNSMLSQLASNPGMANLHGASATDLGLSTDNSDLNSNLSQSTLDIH
T1 sequence (Q16665 whole entry, the tested form may be a part): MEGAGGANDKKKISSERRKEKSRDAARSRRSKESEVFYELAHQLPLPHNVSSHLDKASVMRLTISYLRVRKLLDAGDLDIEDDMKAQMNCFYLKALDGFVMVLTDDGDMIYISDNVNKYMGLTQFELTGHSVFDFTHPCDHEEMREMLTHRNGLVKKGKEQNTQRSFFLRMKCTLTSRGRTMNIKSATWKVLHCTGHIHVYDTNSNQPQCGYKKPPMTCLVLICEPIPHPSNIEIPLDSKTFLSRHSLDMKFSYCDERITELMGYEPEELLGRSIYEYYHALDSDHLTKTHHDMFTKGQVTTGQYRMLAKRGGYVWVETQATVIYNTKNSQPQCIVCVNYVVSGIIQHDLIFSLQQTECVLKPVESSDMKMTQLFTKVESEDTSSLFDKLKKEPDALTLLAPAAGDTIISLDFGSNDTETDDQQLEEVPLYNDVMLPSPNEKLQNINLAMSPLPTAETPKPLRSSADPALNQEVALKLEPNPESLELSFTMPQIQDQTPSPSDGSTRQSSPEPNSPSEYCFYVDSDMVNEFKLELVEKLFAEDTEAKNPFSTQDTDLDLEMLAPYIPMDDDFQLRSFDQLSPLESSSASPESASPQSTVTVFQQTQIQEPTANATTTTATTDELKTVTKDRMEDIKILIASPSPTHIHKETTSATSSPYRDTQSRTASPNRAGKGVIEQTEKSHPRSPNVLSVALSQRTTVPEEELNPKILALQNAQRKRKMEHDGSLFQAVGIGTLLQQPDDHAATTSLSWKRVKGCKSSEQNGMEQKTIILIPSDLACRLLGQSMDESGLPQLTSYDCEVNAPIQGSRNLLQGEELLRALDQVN

[3] = target: T1, Histone acetyltransferase p300/Hypoxia-inducible factor 1-alpha; experiment: Inhibition of HIF-1alpha/p300 PPI (unknown origin); assay type: protein-complex assay
HeLa [4] = experiment: Effect on HIF-1alpa protein expression in human HeLa cells at 1 to 100 uM incubated under hypoxia condition for 8 hrs by Western blot analysis; assay type: functional, cell-based; conditions: dose 1-100 µM
[5] = target: Histone acetyltransferase p300 (Homo sapiens, UniProt Q09472); experiment: Inhibition of p300 CH1 domain (unknown origin) by tryptophan fluorescence spectroscopy analysis
Histone acetyltransferase p300, sequence (Q09472 whole entry, the tested form may be a part): as the sequence (Q09472 whole entry, the tested form may be a part) above

HeLa [6] = experiment: Effect on HIF-1alpa mRNA expression in human HeLa cells at 1 to 100 uM incubated under hypoxia condition for 8 hrs by real-time analysis; assay type: functional, cell-based; conditions: dose 1-100 µM
HeLa [7] = experiment: Downregulation of CAIX mRNA expression in human HeLa cells at 1 to 100 uM incubated under hypoxia condition for 8 hrs by real-time analysis; assay type: functional, cell-based; conditions: dose 1-100 µM
HeLa [8] = experiment: Downregulation of BAX mRNA expression in human HeLa cells at 1 to 100 uM incubated under hypoxia condition for 8 hrs by RT-PCR analysis; assay type: functional, cell-based; conditions: dose 1-100 µM
HeLa [9] = experiment: Effect on p53 mRNA expression in human HeLa cells at 1 to 100 uM incubated under hypoxia condition for 8 hrs by RT-PCR analysis; assay type: functional, cell-based; conditions: dose 1-100 µM
HeLa [10] = experiment: Downregulation of c-MYC mRNA expression in human HeLa cells at 1 to 100 uM incubated under hypoxia condition for 8 hrs by RT-PCR analysis; assay type: functional, cell-based; conditions: dose 1-100 µM
HeLa [11] = experiment: Effect on STAT3 mRNA expression in human HeLa cells at 1 to 100 uM incubated under hypoxia condition for 8 hrs by RT-PCR analysis; assay type: functional, cell-based; conditions: dose 1-100 µM

## C[C@@]12C(=O)OC(=O)[C@]1(C)[C@H]1CC[C@@H]2O1 [CANTHARIDIN]
[1]
  IC50: 5.63 µM

## COC1=C(N)C(=O)c2nc(-c3nc(C(=O)O)c(C)c(-c4ccc(OC)c(OC)c4O)c3N)ccc2C1=O [STREPTONIGRIN]
[2]
  IC50: 1.38 µM

## COC(=O)c1ccc(O)c(NC(=O)COc2ccc(C34CC5CC(CC(C5)C3)C4)cc2)c1
[3]
  IC50: 4.4 µM

## OCCN1CCN(CCCN2c3ccccc3Sc3ccc(Cl)cc32)CC1 [PERPHENAZINE]
[1]
  IC50: 14.3 µM
HeLa [4]
  Activity: inactive

## CC(C)C[C@@H]1NCCN([C@@H](CC(C)C)C(=O)N2CCN([C@@H](CCC(N)=O)C(N)=O)C(=O)[C@@H]2C)C1=O
[5]
  IC50: 0.53 µM
[2]
  IC50: 0.0513 µM

## [N-]=[N+]=Nc1cc(O)c(C(=O)Nc2ccc([N+](=O)[O-])cc2Cl)cc1Cl
HeLa [4]
  Activity: inactive

## Fc1ccc(C(c2ccc(F)cc2)N2CCN(C/C=C/c3ccccc3)CC2)cc1 [FLUNARIZINE HYDROCHLORIDE]
[1]
  IC50: 9.01 µM

## O=C(Nc1ccc([N+](=O)[O-])cc1Cl)c1cc(Cl)ccc1O
HeLa [4]
  Activity: inactive
HeLa [6]
  Activity: inactive
HeLa [7]
  Activity: Active
HeLa [8]
  Activity: Active
HeLa [9]
  Activity: inactive
HeLa [10]
  Activity: Active
HeLa [11]
  Activity: inactive
